Reference: patent US20070254891A1, “Crystalline forms of 4-(2-fluorophenyl)-6-methyl-2-(piperazin-1-yl)thieno[2,3-d]pyrimidine” (Dynogen Pharmaceuticals, Inc., priority 2006, published 2007)
Read-outs that look alike come from different tables or passages of the source.

How the values were obtained:
Type in all cases: physicochemical
[1] = Storage at 40° C./75% RH under ambient light (XRPD, HPLC purity, colour)
Procedure: (§1) Purity analysis was performed on an Agilent HP1100 system equipped with a diode array detector and using Chemstation V9 software. Gradient, Reverse Phase methods (duration approximately 40 minutes) were used in a HPLC1 system. A Thermo-Electron Corporation HyPurity C18 5 um 150×4.6 mm column was used at 25° C. Test samples were made-up of 0.2 mg/ml of the compound in acetonitrile:water (1:1 v/v). 10 μl of sample was injected into the column. The flow rate through the column was 1 ml/min and the detection wavelength, bandwidth was 254,8 nm. Phase A was 0.1% phosphoric acid in water and Phase B was 0.1% phosphoric acid in acetonitrile. The mobile phase timetable is shown below in Table 2.
Form I was characterized by pKa, LogP, LogPion and LogD determination and prediction, XRPD before and after storage at 40° C./75% RH for 4 weeks, PLM, DSC and TGA, ^1HNMR, solubility in water with pH measurement, HPLC purity before and after storage at 40° C./75% RH for 4 weeks, water content, GVS with XRPD and purity analysis after measurement, and VT-XRPD.
Form II has been characterized using XRPD before and after storage at 40° C./75% RH for 3 weeks, PLM, DSC and TGA, Solubility in water with pH measurement, HPLC purity, Water content, GVS with XRPD analysis after measurement, and VT-XRPD.

[2] = Accelerated light stability study (Atlas Suntest CPS+ light box)
Procedure: as §1
Accelerated Light stability experiments were conducted using an Atlas Suntest CPS+light box. The light exposure was set to 550 W/m^2 and the run time was set to 168 hours (1 week). The chamber temperature and black standard temperature (which indicates how hot the test samples will become) were set to 25° C. The actual temperature in the sample chamber was 40° C.
Form I and II were assessed using an Atlas Suntest CPS+ light box to determine the effect of their exposure to light over a period of 168 hours (1 week). The light exposure was set to 550 W/M^2. Samples were weighed into either open weighing boats covered by pyrex glass beakers, glass vials with open tops (no lid), or glass vials covered in Aluminum foil. In all instances, the material was spread out into an even, thin layer.

[3] = Gravimetric vapor sorption (GVS)
Procedure: GVS was used to determine the amount of water adsorbed by a sample. Briefly, samples were run on a Hiden IGASorp moisture sorption analyzer running CFRSorp software. Sample sizes were typically 10 mg. A moisture adsorption desorption isotherm was performed as outlined below in Table 3 (2 scans giving 1 complete cycle). Samples were loaded/unloaded at typical room humidity and temperature (40% RH, 25° C.). Samples were then analyzed by XRPD after GVS analysis, e.g., to determine whether any structural changes took place after adsorption of water. The standard isotherm was performed at 25° C. at 10% RH intervals over a 0-90% RH range.

[4] = pKa determination (Sirius GlpKa, potentiometric and UV)
Procedure: pKa was measured on a Sirius GlpKa instrument equipped with a D-PAS attachment. A UV measurement was taken when the sample was in an aqueous solution and a potentiometric was taken when the sample was in a MeOH:H2O mixture. Measurements were taken at 25° C. The titration media was ionic strength adjusted with 0.15M KCl. Values determined from potentiometric measurements in the MeOH:H2O mixtures were corrected to 0% co-solvent via a Yasuda-Shedlovsky extrapolation. The data was refined using Refinement Pro software version 1.0. Prediction of pKa values was made using ACD pKa prediction software Ver 8.

[5] = Aqueous solubility with pH measurement; settings: water; for solubility at 24 h: 25 °C, thermodynamic from solid
Procedure: Each sample was suspended in 0.25 ml of solvent (water) in an amount effective to produce a maximum final concentration of greater than or equal to about 10 mg/ml of the parent free form of the compound (i.e., adding excess sample to account for the weight of the salt). […] The filtrate was then diluted down 101 times.

[6] = LogP / LogPion / LogD by potentiometric titration (octanol:ISA water)
Procedure: LogP was determined using a potentiometric titration on a Sirius GlpKa instrument using three ratios of Octanol:ISA water to generate Log P, Log Pion, and Log D values. The data was refined using Refinement Pro software version 1.0. Predictions of LogP were made using ACD Ver 8 and Syracuse KOWWIN Ver 1.67 software.

[7] = 10 week stability study at 40° C./75% RH and 60° C./75% RH, light and dark
Procedure: as §1
Samples of Form I and II were tested at 40° C./75% RH and 60° C./75% RH in both light and dark conditions for up to 10 weeks. As the samples were located in temperature/humidity control chambers, the exposure to light was limited to normal laboratory light conditions with artificial light and some winter daylight through the windows.
Approximately 100 mg of each sample was weighed into plastic weighing boats and spread out to form an even thin layer for each of the temperature/humidity/light conditions, as shown in Table 6. The dark samples were protected from exposure to light by wrapping them in aluminum foil. The foil was pierced to allow exposure to humidity.
Time points chosen for HPLC analysis during the stability study were T=0, 1, 2, 5 and 10 weeks. At 10 weeks, the samples were analyzed using XRPD, DSC and polarized light microscopy.

[8] = Variable temperature XRPD (VT-XRPD); settings: heating; irreversible; hydrochloride
Procedure: Samples run under ambient conditions were prepared as flat plate specimens using powder without grinding unless otherwise stated. Approximately 1-2 mg of the sample was lightly pressed on a glass slide to obtain a flat surface. Samples run under non-ambient conditions (VT-XRPD) were mounted on a silicon wafer with heat conducting compound. The sample was then heated to the appropriate temperature at about 20° C./minute and subsequently held isothermally for about 1 minute before data collection was initiated.
Three samples were studied using variable temperature XRPD (VT-XRPD): Form I as received, substantially pure Form I as prepared in Example 3, and substantially pure Form II as prepared in Example 3. VT-XRPD studies were initially carried out on substantially pure Form I as prepared in Example 3 with measurements at 25° C., 50° C., 80° C., 150° C., 220° C., 225° C., 250° C. and cooling to 29° C. Prior to measurement of the last XRPD pattern, the material was crushed due to the growth of large crystals. An overlay of the XRPD patterns can be found in FIG. 4A.
An experiment was also carried out on Form I as received, with measurements at 26° C., 50° C., 150° C., 200° C., 210° C., 220° C., 230° C. and cooling to 27° C. An overlay of the XRPD patterns can be found in FIG. 4B. […] (see peak at ˜14.7 2θ). […]

[9] = 4 weeks at 40° C./75% RH, ambient light

For `Cc1cc2c(-c3ccccc3F)nc(N3CCNCC3)nc2s1.Cl` [Form I, 4-(2-fluorophenyl)-6-methyl-2-(piperazin-1-yl)thieno[2,3-d]pyrimidine hydrochloride], the “Colour of material surface after storage” value [1, 9] was “gone yellow”, the “HPLC purity after storage” value [1, 9] was 99.0% and the “XRPD pattern after storage” value ([1]; 40° C./75% RH for four weeks) was “unchanged”. For the same compound, the “Purity after 1 week light exposure” value ([2]; 20 ml glass vial covered in Al foil with loose lid (control)) was 99.9, the “Purity after 1 week light exposure” value ([2]; 20 ml glass vial, 550 W/m^2, 168 hours, hydrochloride) was 77.8 and the “HPLC purity after accelerated light study” value ([2]; one week, FIGS. 6A/6B (open weighing boats), hydrochloride) was 79.4%. For the same compound, the “Purity after 1 week light exposure” value ([2]; open weighing boat, 550 W/m^2, 168 hours, hydrochloride) was 79.4, the “XRPD reanalysis after GVS” value ([3]; after one adsorption/desorption cycle) was “did not show any change” and the “GVS total weight increase” value ([3]; between 0 and 90% RH, single cycle, 25° C., hydrochloride) was 5.0%. For the same compound, the GVS weight increase ([3]; between 20% and 30% RH) was “about 4.8%”, the “GVS weight increase, equivalent water” value ([3]; between 20% and 30% RH) was 1.0 moles of water and the pKa ([4]; MeOH:H2O mixtures, extrapolated to 0% co-solvent, potentiometric determination in MeOH/water, Yasuda-Shedlovsky extrapolation, read-out: pKa (basic)) was 8.64. For the same compound, the pKa ([4]; aqueous solution, UV spectroscopy (D-PAS attachment), read-out: pKa of second basic centre) was 0.81, the “pH of the solubility sample” value ([5]; 25° C., 24 hours, hydrochloride) was 6.33 and the solubility at 24 h ([5]; read-out: Aqueous solubility (as the hydrochloride)) was 2100 µg/mL. It also gave a solubility at 24 h ([5]; read-out: Aqueous solubility (free base equivalent)) of 1700 µg/mL, a LogPion ([6]; 0.15M KCl(Aq) / 1-octanol) of 1.41 and a logP ([6]; 1-octanol / 0.15M KCl (aq), 0.15M KCl(Aq) / 1-octanol) of 3.96. It also gave a logD ([6]; octanol/ISA water, pH 7.4) of 2.72, a Purity % ([7]; 40° C./75% RH, Dark, 1 week) of 99.9% and a Purity % ([7]; 40° C./75% RH, Dark, 2 weeks) of 100%. The Purity % ([7]; 40° C./75% RH, Dark, 5 weeks) was 100%, the Purity % ([7]; 40° C./75% RH, Dark, 10 weeks, hydrochloride) was 99.9% and the Purity % ([7]; 40° C./75% RH, Light, 1 week) was 99.9%. It also gave a Purity % ([7]; 40° C./75% RH, Light, 2 weeks) of 100%, a Purity % ([7]; 40° C./75% RH, Light, 5 weeks, hydrochloride) of 99.8% and a Purity % ([7]; 40° C./75% RH, Light, 10 weeks, hydrochloride) of 99.4%. The Purity % ([7]; 60° C./75% RH, Dark, 1 week) was 99.9%, the Purity % ([7]; 60° C./75% RH, Dark, 2 weeks, hydrochloride) was 99.9% and the Purity % ([7]; 60° C./75% RH, Dark, 5 weeks) was 100%. For the same compound, the Purity % ([7]; 60° C./75% RH, Dark, 10 weeks, hydrochloride) was 100%, the Purity % ([7]; 60° C./75% RH, Light, 1 week) was 99.8% and the Purity % ([7]; 60° C./75% RH, Light, 2 weeks, hydrochloride) was 99.8%. The Purity % ([7]; 60° C./75% RH, Light, 5 weeks, hydrochloride) was 99.5%, the Purity % ([7]; 60° C./75% RH, Light, 10 weeks, hydrochloride) was 99.4% and the “Yellow coloration of the surface (visual inspection)” value ([7]; after 10 weeks, both storage conditions) was “greatest”. For the same compound, the Purity % ([7]; time point 0 weeks, hydrochloride) was 100% and the “Stability as indicated by the HPLC data” value ([7]; up to 10 weeks, 40° C./75% RH and 60° C./75% RH) was “stable to ambient light levels as well as elevated temperature and humidity”.
With `Cc1cc2c(-c3ccccc3F)nc(N3CCNCC3)nc2s1.Cl` [Form III, 4-(2-fluorophenyl)-6-methyl-2-(piperazin-1-yl)thieno[2,3-d]pyrimidine hydrochloride] the “Temperature of conversion into Form II” value [8] was 200-220 °C.
